Experimental data published in ChEMBL document CHEMBL3352320, “Novel benzothiazinones (BTOs) as allosteric modulator or substrate competitive inhibitor of glycogen synthase kinase 3β (GSK-3β) with cellular activity of promoting glucose uptake” (Bioorg Med Chem Lett, 2014).
One block for each molecule: values may come before it. Activity calls are given as the source filed them. No cut-off for these calls is given here. Non-standard residues stand in square brackets, D forms with d. Residues, ends and D or L forms follow the SMILES beside them. *: point of attachment. Myristoyl = CCCCCCCCCCCCCC(=O)*; pS = N[C@@H](COP(=O)(O)O)C(=O)O

Key:
[1] = biological target: Platelet-derived growth factor receptor beta (Homo sapiens) (UniProt P09619); test: Inhibition of PDGFRbeta (unknown origin) at 100 uM
Platelet-derived growth factor receptor beta (Homo sapiens), sequence (P09619 whole entry): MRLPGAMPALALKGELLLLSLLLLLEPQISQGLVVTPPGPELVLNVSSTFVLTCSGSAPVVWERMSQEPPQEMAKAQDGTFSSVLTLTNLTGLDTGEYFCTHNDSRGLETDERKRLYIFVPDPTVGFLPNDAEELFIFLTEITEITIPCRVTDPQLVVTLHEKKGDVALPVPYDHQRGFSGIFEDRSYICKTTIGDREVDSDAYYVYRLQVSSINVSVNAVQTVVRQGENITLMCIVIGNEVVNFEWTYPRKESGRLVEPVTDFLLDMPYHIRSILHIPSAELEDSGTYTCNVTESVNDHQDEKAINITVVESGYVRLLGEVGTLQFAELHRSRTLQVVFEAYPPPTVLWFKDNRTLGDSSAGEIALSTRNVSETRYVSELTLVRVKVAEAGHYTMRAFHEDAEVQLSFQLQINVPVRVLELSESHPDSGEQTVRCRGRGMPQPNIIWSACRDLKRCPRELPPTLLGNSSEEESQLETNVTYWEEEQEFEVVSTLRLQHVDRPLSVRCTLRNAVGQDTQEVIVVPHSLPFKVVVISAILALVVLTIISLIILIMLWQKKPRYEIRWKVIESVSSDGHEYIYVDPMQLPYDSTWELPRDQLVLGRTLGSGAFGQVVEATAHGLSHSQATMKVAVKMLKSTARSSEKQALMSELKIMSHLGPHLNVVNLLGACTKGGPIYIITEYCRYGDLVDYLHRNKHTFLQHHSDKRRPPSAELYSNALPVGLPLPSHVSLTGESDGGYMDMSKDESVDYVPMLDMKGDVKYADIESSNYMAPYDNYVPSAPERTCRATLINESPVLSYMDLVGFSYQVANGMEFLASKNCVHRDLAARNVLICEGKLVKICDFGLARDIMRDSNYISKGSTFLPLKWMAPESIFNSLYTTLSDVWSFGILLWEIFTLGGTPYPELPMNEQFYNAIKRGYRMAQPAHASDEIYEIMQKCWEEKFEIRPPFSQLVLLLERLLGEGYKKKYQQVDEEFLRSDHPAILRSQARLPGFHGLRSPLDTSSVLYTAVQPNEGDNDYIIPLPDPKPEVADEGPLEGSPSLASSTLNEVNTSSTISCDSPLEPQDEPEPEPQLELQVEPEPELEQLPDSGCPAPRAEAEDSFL

[2] = biological target: Platelet-derived growth factor receptor alpha (Homo sapiens) (UniProt P16234); test: Inhibition of PDGFRalpha (unknown origin) at 100 uM
Platelet-derived growth factor receptor alpha (Homo sapiens), sequence (P16234 whole entry): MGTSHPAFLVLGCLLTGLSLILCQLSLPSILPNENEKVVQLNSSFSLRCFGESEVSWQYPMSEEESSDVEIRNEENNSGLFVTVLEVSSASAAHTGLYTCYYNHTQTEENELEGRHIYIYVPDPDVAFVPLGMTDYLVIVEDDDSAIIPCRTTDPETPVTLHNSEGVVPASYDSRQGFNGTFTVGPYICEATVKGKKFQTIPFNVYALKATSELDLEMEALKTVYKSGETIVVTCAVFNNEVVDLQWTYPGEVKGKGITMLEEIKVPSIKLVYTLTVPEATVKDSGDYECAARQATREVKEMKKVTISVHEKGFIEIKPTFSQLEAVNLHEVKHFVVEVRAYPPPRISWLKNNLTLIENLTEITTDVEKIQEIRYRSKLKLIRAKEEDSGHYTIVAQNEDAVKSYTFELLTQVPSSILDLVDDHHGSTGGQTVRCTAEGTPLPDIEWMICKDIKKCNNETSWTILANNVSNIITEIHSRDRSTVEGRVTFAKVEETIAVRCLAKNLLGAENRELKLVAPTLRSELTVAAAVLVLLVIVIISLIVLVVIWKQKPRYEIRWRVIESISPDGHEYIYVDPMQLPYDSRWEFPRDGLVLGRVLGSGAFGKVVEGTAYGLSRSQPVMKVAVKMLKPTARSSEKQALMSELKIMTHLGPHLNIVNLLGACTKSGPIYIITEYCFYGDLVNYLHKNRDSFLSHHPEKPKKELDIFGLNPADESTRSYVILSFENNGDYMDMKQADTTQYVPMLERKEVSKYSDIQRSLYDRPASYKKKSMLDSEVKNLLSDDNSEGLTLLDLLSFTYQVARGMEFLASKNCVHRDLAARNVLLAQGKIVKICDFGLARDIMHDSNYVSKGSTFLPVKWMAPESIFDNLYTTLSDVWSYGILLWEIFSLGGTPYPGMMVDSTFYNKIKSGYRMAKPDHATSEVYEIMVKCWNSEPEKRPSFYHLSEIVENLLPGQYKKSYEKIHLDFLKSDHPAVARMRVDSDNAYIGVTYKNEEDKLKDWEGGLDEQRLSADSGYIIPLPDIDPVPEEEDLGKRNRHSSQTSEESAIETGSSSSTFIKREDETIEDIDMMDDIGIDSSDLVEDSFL

HepG2 [3] = test: Increase in glucose incorporation in human HepG2 cells at 2 uM after 12 hrs by glucose assay; assay type: functional, cell-based
3T3-L1 [4] = test: Increase in glucose incorporation in mouse 3T3L1 cells at 2 uM after 12 hrs by glucose assay; assay type: functional, cell-based
[5] = biological target: T1, Glycogen synthase kinase-3 beta (Homo sapiens, UniProt P49841); conditions: HepG2, 2 uM
Target sequence in this assay (P49841 whole entry, looked up): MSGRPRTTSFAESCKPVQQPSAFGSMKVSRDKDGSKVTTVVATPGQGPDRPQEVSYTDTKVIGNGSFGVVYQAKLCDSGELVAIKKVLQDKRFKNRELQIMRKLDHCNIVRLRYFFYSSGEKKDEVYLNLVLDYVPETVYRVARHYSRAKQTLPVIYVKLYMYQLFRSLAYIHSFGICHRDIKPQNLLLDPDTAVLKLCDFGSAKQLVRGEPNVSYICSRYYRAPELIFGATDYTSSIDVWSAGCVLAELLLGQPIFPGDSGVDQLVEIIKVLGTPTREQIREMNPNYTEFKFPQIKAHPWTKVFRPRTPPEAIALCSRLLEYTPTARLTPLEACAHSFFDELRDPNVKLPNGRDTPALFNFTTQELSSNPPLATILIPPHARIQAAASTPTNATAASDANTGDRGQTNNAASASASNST
Description: Inhibition of GSK3beta in human HepG2 cells assessed as decrease in ratio of phosphorylated GS/GS at 2 uM after 12 hrs by Western blot analysis

3T3-L1 [6] = test: Increase in glucose incorporation in mouse 3T3L1 cells at 10 uM after 12 hrs by glucose assay; assay type: functional, cell-based
HepG2 [7] = test: Increase in glucose incorporation in human HepG2 cells at 10 uM after 12 hrs by glucose assay; assay type: functional, cell-based
[8] = biological target: Fibroblast growth factor receptor 1 (Homo sapiens) (UniProt P11362); test: Inhibition of FGFR1 (unknown origin) at 100 uM
[9] = biological target: Receptor tyrosine-protein kinase erbB-4 (Homo sapiens) (UniProt Q15303); test: Inhibition of ErbB4 (unknown origin) at 100 uM
Receptor tyrosine-protein kinase erbB-4 (Homo sapiens), sequence (Q15303 whole entry): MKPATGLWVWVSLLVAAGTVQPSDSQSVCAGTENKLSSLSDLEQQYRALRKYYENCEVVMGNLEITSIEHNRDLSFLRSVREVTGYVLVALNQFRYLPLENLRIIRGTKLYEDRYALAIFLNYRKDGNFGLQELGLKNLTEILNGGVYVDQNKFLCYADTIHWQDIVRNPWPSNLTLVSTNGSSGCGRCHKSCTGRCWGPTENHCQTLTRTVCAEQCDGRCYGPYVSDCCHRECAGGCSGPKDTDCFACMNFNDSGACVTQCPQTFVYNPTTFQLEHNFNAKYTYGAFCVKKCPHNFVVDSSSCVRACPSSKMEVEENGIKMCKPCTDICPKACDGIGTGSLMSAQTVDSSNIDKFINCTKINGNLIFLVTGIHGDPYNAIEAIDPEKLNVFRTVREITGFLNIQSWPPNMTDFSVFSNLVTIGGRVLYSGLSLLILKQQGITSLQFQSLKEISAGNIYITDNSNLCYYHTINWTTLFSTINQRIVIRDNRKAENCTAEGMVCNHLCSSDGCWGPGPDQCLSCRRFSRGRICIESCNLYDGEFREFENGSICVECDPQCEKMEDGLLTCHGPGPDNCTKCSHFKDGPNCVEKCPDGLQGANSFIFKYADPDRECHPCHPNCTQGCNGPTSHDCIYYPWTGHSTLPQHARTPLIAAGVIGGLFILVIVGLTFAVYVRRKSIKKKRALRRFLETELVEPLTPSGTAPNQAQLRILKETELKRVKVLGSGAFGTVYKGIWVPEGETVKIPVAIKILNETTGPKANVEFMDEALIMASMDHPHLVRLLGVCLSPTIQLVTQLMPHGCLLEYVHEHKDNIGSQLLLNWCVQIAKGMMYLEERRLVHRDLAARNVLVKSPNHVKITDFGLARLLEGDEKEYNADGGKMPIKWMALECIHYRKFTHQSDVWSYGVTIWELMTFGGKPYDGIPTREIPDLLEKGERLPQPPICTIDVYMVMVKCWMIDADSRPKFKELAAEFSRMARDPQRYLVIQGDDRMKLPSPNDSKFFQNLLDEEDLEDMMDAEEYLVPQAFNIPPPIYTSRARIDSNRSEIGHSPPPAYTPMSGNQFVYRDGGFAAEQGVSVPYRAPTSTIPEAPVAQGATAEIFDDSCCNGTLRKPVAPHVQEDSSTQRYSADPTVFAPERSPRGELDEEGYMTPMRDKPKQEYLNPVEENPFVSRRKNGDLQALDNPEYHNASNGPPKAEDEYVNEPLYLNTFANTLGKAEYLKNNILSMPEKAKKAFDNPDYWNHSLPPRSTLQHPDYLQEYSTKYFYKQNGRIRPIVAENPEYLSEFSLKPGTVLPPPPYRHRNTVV

[10] = biological target: T1, Glycogen synthase kinase-3 beta; test: Inhibition of GSK3beta (unknown origin) using peptide substrate GS2 assessed as ATP remaining by Kinase-Glo luminescent kinase assay
Target sequence in this assay (P49841 whole entry): as the sequence (P49841 whole entry, looked up) above

[11] = biological target: Vascular endothelial growth factor receptor 2 (Homo sapiens) (UniProt P35968); test: Inhibition of KDR (unknown origin) at 100 uM
[12] = biological target: Protein kinase C alpha type (Homo sapiens) (UniProt P17252); test: Inhibition of PKCalpha (unknown origin) at 100 uM
[13] = biological target: Casein kinase II (Homo sapiens) (UniProt P67870+P68400+P19784); test: Inhibition of CK2 (unknown origin) at 100 uM; assay type: protein-complex assay
[14] = biological target: T1, Glycogen synthase kinase-3 beta; test: Competitive inhibition of GSK3beta (unknown origin) using peptide substrate GS2 assessed as ATP remaining by Kinase-Glo luminescent kinase assay
Target sequence in this assay (P49841 whole entry, looked up): as above

[15] = biological target: T1, Glycogen synthase kinase-3 beta; test: Inhibition of GSK3beta in human […] cells assessed as decrease in ratio of phosphorylated GS/GS at 10 uM after 12 hrs by Western blot analysis; assay type: cell-based
Target sequence in this assay (P49841 whole entry, looked up): as above

[16] = biological target: Proto-oncogene tyrosine-protein kinase Src (Homo sapiens) (UniProt P12931); conditions: at 100 µM
Proto-oncogene tyrosine-protein kinase Src (Homo sapiens), sequence (P12931 2-536 limits assumed): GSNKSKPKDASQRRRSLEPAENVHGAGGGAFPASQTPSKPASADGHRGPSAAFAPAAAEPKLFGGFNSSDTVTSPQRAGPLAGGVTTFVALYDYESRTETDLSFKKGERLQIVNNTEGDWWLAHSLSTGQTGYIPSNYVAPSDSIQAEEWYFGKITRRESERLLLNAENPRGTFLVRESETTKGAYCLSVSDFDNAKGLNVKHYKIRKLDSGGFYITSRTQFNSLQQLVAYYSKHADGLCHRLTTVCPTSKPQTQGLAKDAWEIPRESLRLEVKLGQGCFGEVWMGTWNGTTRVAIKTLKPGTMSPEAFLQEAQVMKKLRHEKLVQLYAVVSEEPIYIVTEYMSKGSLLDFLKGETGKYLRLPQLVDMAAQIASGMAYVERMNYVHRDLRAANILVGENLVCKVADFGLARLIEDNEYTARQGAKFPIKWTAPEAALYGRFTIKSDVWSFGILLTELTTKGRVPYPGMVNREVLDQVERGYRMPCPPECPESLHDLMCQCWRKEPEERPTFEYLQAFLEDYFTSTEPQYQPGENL
Description: Inhibition of c-Src (unknown origin) at 100 uM

[17] = biological target: Cyclin-dependent kinase 1 (Homo sapiens) (UniProt P06493); test: Inhibition of CDK1 (unknown origin) at 100 uM
Cyclin-dependent kinase 1 (Homo sapiens), sequence (P06493 whole entry, looked up): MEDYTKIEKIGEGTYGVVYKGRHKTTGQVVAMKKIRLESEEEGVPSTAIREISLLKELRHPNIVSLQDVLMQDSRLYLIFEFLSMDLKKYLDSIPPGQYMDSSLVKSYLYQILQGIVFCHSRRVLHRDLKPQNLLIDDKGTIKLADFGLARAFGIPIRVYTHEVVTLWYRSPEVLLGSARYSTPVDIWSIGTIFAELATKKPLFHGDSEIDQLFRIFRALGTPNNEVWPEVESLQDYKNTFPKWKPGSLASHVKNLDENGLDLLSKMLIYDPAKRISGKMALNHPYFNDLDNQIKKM

3T3-L1 [18] = test: Increase in glucose incorporation in mouse 3T3L1 cells at 34 uM after 12 hrs by glucose assay; assay type: functional, cell-based
[19] = biological target: T1, Glycogen synthase kinase-3 beta; conditions: HepG2, 34 uM
Target sequence in this assay (P49841 whole entry, looked up): as the sequence (P49841 whole entry, looked up) above
Description: Inhibition of GSK3beta in human HepG2 cells assessed as decrease in ratio of phosphorylated GS/GS at 34 uM after 12 hrs by Western blot analysis

HepG2 [20] = test: Increase in glucose incorporation in human HepG2 cells at 34 uM after 12 hrs by glucose assay; assay type: functional, cell-based

Structure (SMILES): CCN(CC)CCNC(=O)c1c(C)[nH]c(/C=C2\C(=O)Nc3ccc(F)cc32)c1C
- inhibition [1]: 70.6%
- inhibition [2]: 71.4%

Structure (SMILES): CCCCCCCCCCCC(=O)NNC(=O)C1Sc2ccccc2N(Cc2ccccc2)C1=O (stereo not drawn)
- Activity (3T3-L1 [6]): Active
- inhibition [1]: 0%
- Activity (HepG2 [7]): Active
- inhibition [8]: 29.3%
- inhibition [9]: 0%
- IC50 [10]: 10 µM
- inhibition [11]: 12.4%
- inhibition [12]: 13%
- inhibition [13]: 0%
- inhibition [14]: Active
- inhibition [2]: 0%
- inhibition [15]: Active
- inhibition [16]: 12.2%
- inhibition [17]: 36%

Structure (SMILES): Cn1cc(C2=C(c3ccc(Cl)cc3Cl)C(=O)NC2=O)c2ccccc21
- Activity (3T3-L1 [18]): Active
- inhibition [19]: Active
- Activity (HepG2 [20]): Active

Structure (SMILES): CN(C)C/C=C/C(=O)Nc1cc2c(Nc3ccc(F)c(Cl)c3)ncnc2cc1O[C@H]1CCOC1
- inhibition [9]: 88.1%

Second part, led by results:

- inhibition [5]: Active
Structure (SMILES): Cn1sc(=O)n(Cc2ccccc2)c1=O
- Activity (HepG2 [3]): Active
- Activity (3T3-L1 [4]): Active

- IC50 [10]: 40 µM
Structure (SMILES): CCCCCCCCCCCCCC(=O)NCC(=O)N[C@@H](CCCCN)C(=O)N[C@@H](CCC(=O)O)C(=O)N[C@@H](C)C(=O)N1CCC[C@H]1C(=O)N1CCC[C@H]1C(=O)N[C@@H](C)C(=O)N1CCC[C@H]1C(=O)N1CCC[C@H]1C(=O)N[C@@H](CCC(N)=O)C(=O)N[C@@H](COP(=O)(O)O)C(=O)N1CCC[C@H]1C(N)=O (Myristoyl-GKEAPPAPPQ[pS]P-NH2)

- IC50 [10]: 8 µM
- inhibition [15]: Active
Structure (SMILES): CCCCCCCCCCCC(=O)NNC(=O)C1Sc2ccccc2N(CC)C1=O (stereo not drawn)
- Activity (3T3-L1 [6]): Active
- Activity (HepG2 [7]): Active
